Where two headings read alike, the source gives them in different places.
Legend:
[1] = biological target: T1, CYP2D6 (Homo sapiens, UniProt P10635); test: Direct inhibition (DI) of CYP2D6 in human liver microsomes; format: in vitro ADME; conditions: probe Dextromethorphan, human liver microsomes 0.2 mg/mL, 10 μM compound, read-out: Direct inhibition (DI) 2D6 (Dextromethorphan)
T1 construct: A system of 100 μL human liver microsomes; from tissue; host or cells: human liver microsomes
Experimental: (§1) Study on Direct Inhibition (DI) of CYP3A4, CYP2D6, CYP2C9, CYP2C19, CYP1A2
(§2) A system of 100 μL human liver microsomes (final concentration: 0.2 mg/mL) was used for direct inhibition under warm incubation. The system contained NADPH (final concentration: 1 mM), 10 μM compound, a positive inhibitor cocktail (Ketoconazole 10 μM, Quinidine: 10 μM, Sulfaphenazole: 100 μM, Naphthoflavone: 10 μM, Tranylcypromene 1000 μM), a negative control 10 μM DMSO and mixed probe substrates (Midazolam 10 μM, Testosterone 100 μM, Dextromethophan 10 μM, Diclofenac 20 μM, Phenetin 100 μM, Mephenytoin 100 μM). The reaction was terminated after incubation for 20 minutes. The relative activity of the enzymes was calculated by measuring the relative production of metabolites.

[2] = biological target: T2, CYP1A2 (Homo sapiens, UniProt P05177); test: Direct inhibition (DI) of CYP1A2 in human liver microsomes; format: in vitro ADME; conditions: probe Phenacetin, human liver microsomes 0.2 mg/mL, 10 μM compound, read-out: Direct inhibition (DI) 1A2 (Phenacetin)
T2 construct: A system of 100 μL human liver microsomes; from tissue; host or cells: human liver microsomes
T2 sequence (P05177 1-516): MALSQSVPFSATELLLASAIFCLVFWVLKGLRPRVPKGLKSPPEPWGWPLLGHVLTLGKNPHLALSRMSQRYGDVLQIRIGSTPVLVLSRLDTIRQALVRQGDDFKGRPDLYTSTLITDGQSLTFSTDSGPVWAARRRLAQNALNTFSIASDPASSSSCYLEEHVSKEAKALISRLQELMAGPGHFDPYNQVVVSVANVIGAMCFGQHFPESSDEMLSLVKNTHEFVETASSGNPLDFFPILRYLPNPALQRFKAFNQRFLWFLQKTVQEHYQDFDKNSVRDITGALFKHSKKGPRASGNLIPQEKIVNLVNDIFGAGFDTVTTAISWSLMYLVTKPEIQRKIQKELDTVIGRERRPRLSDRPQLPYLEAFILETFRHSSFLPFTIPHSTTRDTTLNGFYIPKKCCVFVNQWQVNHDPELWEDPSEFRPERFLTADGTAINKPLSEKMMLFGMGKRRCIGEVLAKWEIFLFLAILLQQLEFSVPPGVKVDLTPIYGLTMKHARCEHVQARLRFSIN
Experimental: as §1, §2

[3] = biological target: T3, CYP3A4 (Homo sapiens, UniProt P08684); test: Direct inhibition (DI) of CYP3A4 in human liver microsomes; format: in vitro ADME; conditions: human liver microsomes 0.2 mg/mL, 10 μM compound
T3 construct: A system of 100 μL human liver microsomes; from tissue; host or cells: human liver microsomes
T3 sequence (P08684 whole entry): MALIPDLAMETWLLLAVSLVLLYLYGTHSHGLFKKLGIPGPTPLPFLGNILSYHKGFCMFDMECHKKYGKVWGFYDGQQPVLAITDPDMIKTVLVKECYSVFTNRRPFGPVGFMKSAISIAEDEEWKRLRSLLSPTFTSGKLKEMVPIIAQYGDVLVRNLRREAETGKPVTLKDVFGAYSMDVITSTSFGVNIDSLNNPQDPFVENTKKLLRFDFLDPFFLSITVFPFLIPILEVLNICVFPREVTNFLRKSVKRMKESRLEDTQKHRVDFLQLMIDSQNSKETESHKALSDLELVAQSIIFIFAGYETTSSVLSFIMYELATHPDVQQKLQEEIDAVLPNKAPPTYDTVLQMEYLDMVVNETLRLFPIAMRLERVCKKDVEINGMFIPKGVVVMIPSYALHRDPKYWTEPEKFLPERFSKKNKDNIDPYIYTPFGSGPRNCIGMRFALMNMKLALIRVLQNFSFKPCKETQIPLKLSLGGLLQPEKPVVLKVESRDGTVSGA
Experimental: as §1, §2

[4] = biological target: T4, CYP2C9 (Homo sapiens, UniProt P11712); test: Direct inhibition (DI) of CYP2C9 in human liver microsomes; format: in vitro ADME; conditions: probe Diclofenac, human liver microsomes 0.2 mg/mL, 10 μM compound, read-out: Direct inhibition (DI) 2C9 (Diclofenac)
T4 construct: A system of 100 μL human liver microsomes; from tissue; host or cells: human liver microsomes
T4 sequence (P11712 whole entry): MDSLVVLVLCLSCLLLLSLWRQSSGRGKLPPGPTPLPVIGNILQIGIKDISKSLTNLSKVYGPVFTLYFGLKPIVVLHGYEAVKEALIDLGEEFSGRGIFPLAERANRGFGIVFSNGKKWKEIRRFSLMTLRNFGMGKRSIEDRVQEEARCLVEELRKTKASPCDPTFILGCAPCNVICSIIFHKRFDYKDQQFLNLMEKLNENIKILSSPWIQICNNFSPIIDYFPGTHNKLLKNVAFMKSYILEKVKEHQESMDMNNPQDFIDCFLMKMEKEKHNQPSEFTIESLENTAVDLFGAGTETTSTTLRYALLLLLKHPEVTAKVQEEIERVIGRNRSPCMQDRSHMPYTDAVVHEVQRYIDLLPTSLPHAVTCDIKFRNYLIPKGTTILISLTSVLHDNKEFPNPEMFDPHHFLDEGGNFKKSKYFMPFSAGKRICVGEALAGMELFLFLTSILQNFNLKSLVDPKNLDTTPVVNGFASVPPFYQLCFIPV
Experimental: as §1, §2

[5] = biological target: T5, ErbB2 kinase (Homo sapiens, UniProt P04626); test: EGFR/ErbB2 enzymatic experiment (HTRF kinEASE-TK), ErbB2; format: biochemical; conditions: ErbB2 kinase 0.06 ng/μL, ATP 4 μM; read-out: Kinase IC50 (nM) in vitro ErbB2
T5 construct: The final concentration of ErbB2 kinase was 0.06 ng/μL
T5 sequence (P04626 23-1255): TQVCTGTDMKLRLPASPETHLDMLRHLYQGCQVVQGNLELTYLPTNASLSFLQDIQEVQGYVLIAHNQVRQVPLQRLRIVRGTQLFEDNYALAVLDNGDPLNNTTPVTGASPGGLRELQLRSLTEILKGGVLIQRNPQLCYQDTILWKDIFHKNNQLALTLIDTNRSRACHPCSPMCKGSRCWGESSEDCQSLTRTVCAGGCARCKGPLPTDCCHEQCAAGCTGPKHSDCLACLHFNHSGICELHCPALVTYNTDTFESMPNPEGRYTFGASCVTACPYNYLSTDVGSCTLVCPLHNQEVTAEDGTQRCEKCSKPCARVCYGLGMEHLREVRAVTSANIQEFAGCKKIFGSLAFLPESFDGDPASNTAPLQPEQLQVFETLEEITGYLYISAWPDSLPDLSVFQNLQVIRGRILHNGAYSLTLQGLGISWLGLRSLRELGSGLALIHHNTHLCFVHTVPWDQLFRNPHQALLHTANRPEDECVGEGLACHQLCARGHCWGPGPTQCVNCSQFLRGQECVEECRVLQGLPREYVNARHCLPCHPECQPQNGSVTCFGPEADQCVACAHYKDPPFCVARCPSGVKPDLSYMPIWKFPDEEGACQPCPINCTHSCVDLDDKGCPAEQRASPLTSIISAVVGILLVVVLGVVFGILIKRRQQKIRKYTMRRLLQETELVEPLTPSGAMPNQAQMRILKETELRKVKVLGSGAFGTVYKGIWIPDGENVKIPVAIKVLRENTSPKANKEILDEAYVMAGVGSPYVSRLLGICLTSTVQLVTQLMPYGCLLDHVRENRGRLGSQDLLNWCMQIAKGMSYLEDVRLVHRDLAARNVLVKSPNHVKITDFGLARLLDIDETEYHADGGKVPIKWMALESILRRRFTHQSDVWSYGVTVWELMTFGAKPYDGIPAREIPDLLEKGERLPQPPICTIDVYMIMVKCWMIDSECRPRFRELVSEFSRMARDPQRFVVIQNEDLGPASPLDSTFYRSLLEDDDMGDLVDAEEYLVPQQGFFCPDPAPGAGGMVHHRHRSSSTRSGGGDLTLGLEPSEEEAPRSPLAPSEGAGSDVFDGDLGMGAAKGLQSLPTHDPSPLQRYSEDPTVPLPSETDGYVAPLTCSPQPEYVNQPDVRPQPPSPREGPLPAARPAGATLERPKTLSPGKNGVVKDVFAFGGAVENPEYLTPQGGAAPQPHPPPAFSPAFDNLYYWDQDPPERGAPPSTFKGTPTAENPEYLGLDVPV
Experimental: (§3) EGFR/ErbB2 Enzymatic Experiment
(§4) Firstly, 1× reaction buffer required for the kinase was prepared, then 5× Enzymatic buffer (HEPES 20 mM pH 7.0, NaN3 0.1%, BSA 0.05%, sodium orthovanadate 0.5 mM) was diluted in HTRF kinEASE-TK kit by 1 time with deionized water, and 50 nM Supplement Enzymatic buffer (SEB REAGENT), 1 mM MnCl2, 5 mM MfCl2, 1 mM DTT were added. Secondly, 5× compound was prepared, and 10 mM test compound storage solution was diluted in multiple steps with DMSO in a 96-well compound plate to prepare 100× compound as an initial concentration, which was then used as the first concentration to carry out a 3-fold gradient dilution with DMSO to obtain a total of 10 concentrations. Then 1 μL of gradient diluent was added to 19 μL of 1× reaction buffer to prepare 5× compound for later use. Then 2 μL of 5× compound was transferred from the 96-well plate into a 384-well plate. To the compound-free control wells was added 2 μL of the following liquid: 19 μL of 1× reaction buffer with addition of 1 μL of DMSO. To the blank control well was added 2 μL of 250 mM EDTA. […] In the fourth step of reaction termination, HTRF Detection buffer was used to prepare a mixture of 2×TK Antibody-EU (K) and Sa-XL665, and the amount of TK Antibody-EU (K) was 5 μL per well. After the enzyme reaction was carried out for 30 minutes, 10 μL of the above liquid was added to a 384-well plate, and the reaction was carried out at room temperature for 1 hour. […] RFU665 nM and RFU620 nM were measured, and RFU665 nM/RFU620 nM×10000 was used as final data for analysis.

[6] = tested on: BT-474 (human breast cancer cell); test: In vitro proliferation inhibition assay of cell lines (CellTiter-Glo), BT-474; format: cell-based; conditions: BT-474 cells, 72 hours
Experimental: (§5) In Vitro Proliferation Inhibition Assay of Cell Lines
1. […] 2. Dosing to the cells: on the second day of the experiment, the microplate was taken out from the incubator, and 10 μL of 10× compound was added to each well of the microplate, setting 2 duplicate wells for each drug concentration and 9 dosing concentrations for each compound. According to different cell lines, the initial concentration of each compound was different. Upon completion of addition, the microplate was placed under the conditions of 37° C. and 5% CO2 for 72 hours. 3. Data acquisition: the microplate was taken out from the incubator and was allowed to equilibrate at room temperature for 30 minutes. 100 μL of CellTiter-Glo® Luminescent Cell Viability Assay reaction solution which had been equilibrated at room temperature was added to each well, and the reaction solution was shaken at 1300 rpm for 2 minutes at room temperature. After that, the microplate was placed in HERAEUS Multifuge X1R centrifuge, centrifuged at 2000 rpm for 1 minute, and allowed to equilibrate at room temperature for 10 minutes. The fluorescence signal value was measured on EnVision™.

[7] = tested on: N87 (human gastric cancer cell NCI-N87); test: In vitro proliferation inhibition assay of cell lines (CellTiter-Glo), N87; format: cell-based; conditions: N87 cells, 72 hours
Experimental: as §5
1. Cell culture and inoculation: on the first day of the experiment, normal cultured cells were taken, and in the exponential growth state, after digestion and dispersion, the cell density was then adjusted to 8.8×10^4 cells/mL for BT-474, and 6.6×10^4 cells/mL for N87, and 90 μL of which were inoculated to each well of a 96-well cell culture plate; after the inoculation was completed, the microplate was cultured under the conditions of 37° C. and 5% CO2 overnight. 2. Dosing to the cells: on the second day of the experiment, the microplate was taken out from the incubator, and 10 μL of 10× compound was added to each well of the microplate, setting 2 duplicate wells for each drug concentration and 9 dosing concentrations for each compound. According to different cell lines, the initial concentration of each compound was different. Upon completion of addition, the microplate was placed under the conditions of 37° C. and 5% CO2 for 72 hours. 3. Data acquisition: the microplate was taken out from the incubator and was allowed to equilibrate at room temperature for 30 minutes. 100 μL of CellTiter-Glo® Luminescent Cell Viability Assay reaction solution which had been equilibrated at room temperature was added to each well, and the reaction solution was shaken at 1300 rpm for 2 minutes at room temperature. After that, the microplate was placed in HERAEUS Multifuge X1R centrifuge, centrifuged at 2000 rpm for 1 minute, and allowed to equilibrate at room temperature for 10 minutes. The fluorescence signal value was measured on EnVision™.

[8] = biological target: EGFR kinase (Homo sapiens, UniProt P00533); test: EGFR/ErbB2 enzymatic experiment (HTRF kinEASE-TK), EGFR; format: biochemical; conditions: EGFR kinase 0.06 units/μL, ATP 1.65 μM; read-out: Kinase IC50 (nM) in vitro EGFR
Chain of EGFR kinase (P00533 25-1210): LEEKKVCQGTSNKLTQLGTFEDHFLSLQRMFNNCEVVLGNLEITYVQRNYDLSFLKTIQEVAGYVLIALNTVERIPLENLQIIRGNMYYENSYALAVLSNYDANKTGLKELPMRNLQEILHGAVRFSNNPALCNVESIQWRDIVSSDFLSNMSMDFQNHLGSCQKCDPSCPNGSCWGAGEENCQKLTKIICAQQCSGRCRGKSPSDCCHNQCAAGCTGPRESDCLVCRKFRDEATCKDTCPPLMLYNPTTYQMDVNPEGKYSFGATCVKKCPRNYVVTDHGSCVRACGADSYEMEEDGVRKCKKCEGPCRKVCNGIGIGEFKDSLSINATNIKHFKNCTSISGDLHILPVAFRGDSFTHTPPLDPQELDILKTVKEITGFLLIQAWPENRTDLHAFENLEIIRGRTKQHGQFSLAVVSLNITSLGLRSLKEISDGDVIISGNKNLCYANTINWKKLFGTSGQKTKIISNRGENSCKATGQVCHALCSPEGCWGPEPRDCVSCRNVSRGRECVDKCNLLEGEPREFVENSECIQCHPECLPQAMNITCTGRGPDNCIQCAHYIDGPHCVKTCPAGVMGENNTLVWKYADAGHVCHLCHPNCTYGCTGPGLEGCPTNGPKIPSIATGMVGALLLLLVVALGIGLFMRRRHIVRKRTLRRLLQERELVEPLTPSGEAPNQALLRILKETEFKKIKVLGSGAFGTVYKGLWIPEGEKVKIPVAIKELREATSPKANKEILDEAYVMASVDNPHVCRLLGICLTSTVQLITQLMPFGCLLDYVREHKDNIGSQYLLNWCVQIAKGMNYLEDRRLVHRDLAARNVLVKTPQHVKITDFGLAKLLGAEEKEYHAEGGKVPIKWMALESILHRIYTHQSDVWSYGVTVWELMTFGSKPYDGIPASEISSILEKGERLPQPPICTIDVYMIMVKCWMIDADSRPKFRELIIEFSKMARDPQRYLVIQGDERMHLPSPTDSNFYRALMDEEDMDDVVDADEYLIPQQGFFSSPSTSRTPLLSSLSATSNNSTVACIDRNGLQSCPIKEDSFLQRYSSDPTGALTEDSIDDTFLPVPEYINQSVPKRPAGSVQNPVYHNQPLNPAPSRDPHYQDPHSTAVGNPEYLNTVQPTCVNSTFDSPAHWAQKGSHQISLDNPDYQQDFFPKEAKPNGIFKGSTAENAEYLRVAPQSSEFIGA
Experimental: as §3, §4

[9] = biological target: T6, CYP2C19 (Homo sapiens, UniProt P33261); test: Direct inhibition (DI) of CYP2C19 in human liver microsomes; format: in vitro ADME; conditions: probe Mephenytoin, human liver microsomes 0.2 mg/mL, 10 μM compound, read-out: Direct inhibition (DI) 2C19 (Mephenytoin)
T6 construct: A system of 100 μL human liver microsomes; from tissue; host or cells: human liver microsomes
T6 sequence (P33261 whole entry): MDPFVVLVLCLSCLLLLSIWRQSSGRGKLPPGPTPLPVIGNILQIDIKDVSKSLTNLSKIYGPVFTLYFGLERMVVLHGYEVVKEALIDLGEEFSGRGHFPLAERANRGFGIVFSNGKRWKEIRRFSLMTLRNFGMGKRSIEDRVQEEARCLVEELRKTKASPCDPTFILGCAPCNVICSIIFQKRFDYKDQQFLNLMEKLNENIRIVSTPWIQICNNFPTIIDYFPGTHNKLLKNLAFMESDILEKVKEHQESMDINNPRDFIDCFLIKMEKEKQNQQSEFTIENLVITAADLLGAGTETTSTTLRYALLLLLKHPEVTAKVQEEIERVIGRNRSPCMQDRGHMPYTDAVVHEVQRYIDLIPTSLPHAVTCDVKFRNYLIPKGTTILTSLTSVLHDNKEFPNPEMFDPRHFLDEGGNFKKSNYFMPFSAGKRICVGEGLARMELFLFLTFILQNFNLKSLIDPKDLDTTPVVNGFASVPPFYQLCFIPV
Experimental: as §1, §2

[10] = probe Midazolam, read-out: Direct inhibition (DI) 3A4 (Midazolam)
[11] = probe Testosterone, read-out: Direct inhibition (DI) 3A4 (testosterone)

T1 sequence (P10635 whole entry): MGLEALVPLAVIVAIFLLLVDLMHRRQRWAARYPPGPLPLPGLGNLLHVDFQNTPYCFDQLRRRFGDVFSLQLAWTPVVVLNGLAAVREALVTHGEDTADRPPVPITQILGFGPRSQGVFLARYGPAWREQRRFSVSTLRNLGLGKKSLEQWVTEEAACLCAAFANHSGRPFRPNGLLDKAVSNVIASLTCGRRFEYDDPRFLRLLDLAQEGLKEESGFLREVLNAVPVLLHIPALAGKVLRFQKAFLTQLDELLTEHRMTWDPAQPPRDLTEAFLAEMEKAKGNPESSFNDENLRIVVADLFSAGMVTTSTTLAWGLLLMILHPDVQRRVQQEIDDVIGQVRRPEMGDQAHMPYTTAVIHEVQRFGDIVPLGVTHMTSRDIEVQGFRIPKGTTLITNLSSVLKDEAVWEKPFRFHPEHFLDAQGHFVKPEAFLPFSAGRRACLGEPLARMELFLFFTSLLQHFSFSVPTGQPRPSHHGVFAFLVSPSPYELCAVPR

Compound | inhibition at 20 min, 10 µM [1] [%] | inhibition at 20 min, 10 µM [2] [%] | inhibition at 20 min, 10 µM [3, 10] [%] | inhibition at 20 min, 10 µM [3, 11] [%] | inhibition at 20 min, 10 µM [4] [%] | IC50 [5] [nM] | IC50 [6] [nM] | IC50 [7] [nM] | IC50 [8] [nM] | inhibition at 20 min, 10 µM [9] [%]
Cc1cc(Nc2ncnc3ccc(NC(=O)/C=C/[C@H]4CCCN4C)cc23)ccc1Oc1ccc2nccn2n1 [Final product of Embodiment 10] | 46 | 14 | 12 | 29 | < 0 | 1.34 | 4.56 | 3.52 | 4.62 | 9
Cc1cc(Nc2ncnc3ccc(NC(=O)/C=C/[C@H]4CCCN4C)cc23)ccc1Oc1ccn2ccnc2c1 [Final product of Embodiment 11, (R,E)-N-(4-((4-(imidazo[1,2-a]pyridin-7-yloxy)-3-methylphenyl)amino)quinazolin-6-yl)-3-(1-methylpyrrolidin-2-yl)acrylamide] | 87 | 9 | 5 | 16 | 9 | 0.73 | 3.27 | 3.18 | 1.02 | 26
Cc1cc(Nc2ncnc3ccc(NC(=O)/C=C/[C@H]4CCCN4C)cc23)ccc1Oc1ccn2ncnc2n1 [Final product of Embodiment 12, (R,E)-N-(4-((4-([1,2,4]triazolo[1,5-a]pyrimidin-5-yloxy)-3-methylphenyl)amino)quinazolin-6-yl)-3-(1-methylpyrrolidin-2-yl)-acrylamide] | 77 | 2 | < 0 | 4 | 5 | 0.99 | 4.01 | 4.19 | 0.42 | 13

Continued, values first:

inhibition at 20 min, 10 µM [1] [%] | inhibition at 20 min, 10 µM [2] [%] | inhibition at 20 min, 10 µM [3, 10] [%] | inhibition at 20 min, 10 µM [3, 11] [%] | inhibition at 20 min, 10 µM [4] [%] | IC50 [5] [nM] | IC50 [6] [nM] | IC50 [7] [nM] | IC50 [8] [nM] | inhibition at 20 min, 10 µM [9] [%] | Compound
4 | 3 | 17 | 34 | 8 | 0.488 | 5.31 | 4.97 | 0.251 | 9 | CCOc1cc2ncnc(Nc3ccc(Oc4cc5nncn5cn4)c(C)c3)c2cc1NC(=O)/C=C/[C@H]1CCCN1 [Final product of Embodiment 17, (R,E)-N-(4-((4-([1,2,4]triazolo[4,3-c]pyrimidin-7-yloxy)-3-methylphenyl)amino)-7-ethoxyquinazolin-6-yl)-3-(pyrrolidin-2-yl)acrylamide]
4 | 5 | 12 | 23 | 4 | 0.513 | 2.1 | 1.58 | 0.358 | 8 | CCOc1cc2ncnc(Nc3ccc(Oc4cc5nncn5cn4)c(C)c3)c2cc1NC(=O)/C=C/[C@H]1CCCN1C [Final product of Embodiment 18, (R,E)-N-(4-((4-([1,2,4]triazolo[4,3-c]pyrimidin-7-yloxy)-3-methylphenyl)amino)-7-ethoxyquinazolin-6-yl)-3-(1-methylpyrrolidin-2-yl)acrylamide]
60 | 7 | 16 | 38 | < 0 | 0.716 | 26 | 28.4 | 3.97 | < 0 | Cc1cc(Nc2ncnc3ccc(NC(=O)/C=C/[C@H]4CCCN4)cc23)ccc1Oc1ccn2ncnc2c1 [Final product of Embodiment 19, (R,E)-N-(4-((4-([1,2,4]triazolo[1,5-a]pyridin-7-yloxy)-3-methylphenyl)amino)quinazolin-6-yl)-3-(pyrrolidin-2-yl)acrylamide]
61 | 6 | 0 | 14 | < 0 | 0.584 | 3.23 | 2.07 | 3.93 | 7 | Cc1cc(Nc2ncnc3ccc(NC(=O)/C=C/[C@H]4CCCN4C)cc23)ccc1Oc1ccn2ncnc2c1 [Final product of Embodiment 20, (R,E)-N-(4-((4-([1,2,4]triazolo[1,5-a]pyridin-7-yloxy)-3-methylphenyl)amino)quinazolin-6-yl)-3-(1-methylpyrrolidin-2-yl)acrylamide]

Reference: patent publication US11578074B2, “Nitrogenous heterocyclic compound, preparation method, intermediate, composition, and application” (SHANGHAI PHARMACEUTICALS HOLDING CO., LTD., priority 2017, dated 2023)
